Measurements reported in US11130766B2, “Deuterated thienopiperidine derivatives, manufacturing method, and application thereof” (JIANGSU TASLY DIYI PHARMACEUTICAL CO., LTD., priority 2015, dated 2021).
Read-outs that look alike come from different tables or passages of the source. Marks after values point to notes of the source that are not given here. Values belong to the molecule of their own block, whether it stands above or below them.

What was measured:
[1] = tested on: ADP induced platelet aggregation; experiment: ADP induced platelet aggregation, maximum aggregation rate after administration to rats; assay type: in vivo, Wistar male rats; set-up: unit not given here; conditions: 3 mg/kg
Experimental: Addition of small dose of ADP (concentration less than 0.9 μmol/L) into the platelet suspension could lead to rapid platelet aggregation, followed by quick disaggregation; if moderate dose of ADP (about 1.0 μmol/L) was added, then the second irreversible aggregation phase appeared not long after the end of the first aggregation phase and the disaggregation. The maximum aggregation rate of the irreversible aggregation phase was used to evaluate the effect of the test samples on the function of blood coagulation.
Animals: Wistar male rats, weighing 230-250 g, were purchased from Vital River Laboratory Animal Technology Co., Ltd.
Reagent: ADP, Sigma Corporation.
Test samples: 16 test samples were provided by the Tasly Group; referred to China patent application 201310428052.4 for manufacturing method of TSC-1˜4 and TSC-6˜9.
Dose of administration: the test samples were suspended with 0.25% CMC, administered 3 mg/kg weight, volume of administration: 2 mL.
2 Hours after administration, the rats were anesthetized with pentobarbital sodium, and blood was drawn from the abdominal aorta, anticoagulated with sodium citrate with a ratio of 1:9, and centrifuged to obtain the platelet-rich plasma and platelet-poor plasma, with the mixed ratio of the platelet-poor plasma to platelet-rich plasma=3:1.

Rat Tail Bleeding Model = tested on: Rat Tail Bleeding Model
Experimental: genus, strain SD rat, • Provider: Slac • Weight: 250-350 g • Sex: male • Animal number: 30
Experimental Method: • The animals were allowed adapt to the environment after arrival for 1 week and fasted for 16 hours prior to the experiment. • The tail bleeding time started to be recorded 2 h after oral administration of the test compounds and 4 h after oral administration of clopidogrel. • The rats were anesthetized with pentobarbital sodium (50 mg/kg, ip) 10 min prior to the recording of the tail bleeding time, after the rat was completely anesthetized and reaching the detection time, the tail was cut at 1.3 mm from the rat tail-tip with a scissor and perpendicularly immerged into a saline at 37° C. Timing recording was not started until the blood flow appeared. • The timing recording was stopped when the bleeding time interval was longer than 20 seconds. The maximum observation time for the blood flow was set for 40 minutes. If it was longer than 40 minutes, the timing recording was stopped and the time was recorded as 40 minutes.

[2] = tested on: Rat Arteriovenous Thrombus Loop Model
Text: genus, strain: SD rat, • Provider: Slac • Weight: 250-350 g • Sex: male • Animal number: 30
Apparatus and Materials • Swab, dry tampon, alcohol pad, anerdian tampon. • Surgical scissor, ophthalmic forceps, hemostatic forceps, microsurgical scissor, microsurgical forceps, artery clamps. • 3-0 surgical suture, thick PE tube (I.D.*O.D.=1.14 mm*1.63 mm, 8 cm long), think PE tube (I.D.*O.D.=0.72 mm*1.22 mm, 6 cm long). • Surgical board, binding rope, timer, precise electronic balance, weighing paper. • Syringe, normal saline.
7. Experimental Method • After arrival, the animals were let adapt to the environment for 1 week and fasted for 16 hours prior to the test. • The arteriovenous blood loop circulation was started 2 h after oral administration of the test compounds and 4 h after oral administration of clopidogrel. • The rats were anesthetized with pentobarbital sodium (50 mg/kg, ip) 15 min before the arteriovenous blood loop circulation was started. • The left external jugular vein and the right carotid artery were separated and inserted with thin PE tubes respectively. • Two PE tubes were connected with another thick PE tube with a length of 8 cm to form a circulation passage. There's a 6 cm surgical suture (3-0) in the thick PE tube. • 15 min after the circulation passage was opened, the blood flow was blocked, the filament was taken out and weighed after the blood was sucked out. The thrombus weight was obtained after subtraction of the weight of the filament itself.

esterase [3] = conditions: for sample test results (concentration) Mean / sample test results (concentration) Num. 1 / sample test results (concentration) Num. 2 / sample test results (concentration) Num. 3: rat whole blood, 37° C., 30 μg/mL
Experimental: The hydrolysis rates of formula TSD-6 and clopidogrel bisulfate in the rat whole blood were determined by employing the in vitro incubation method.
3 mL of the rat fresh whole blood was taken and placed in a glass test tube. 30 μg/mL of formula TSD-6 and clopidogrel bisulfate (prepared with saline) were added, with 3 parallel tests for each group. The test tubes were shocked at a constant temperature of 37° C., 100 μL of the mixture was taken out at fixed time points of 10 min, 20 min, 30 min, 40 min, 50 min, 60 min, 70 min, 80 min, 90 min, 100 min, 110 min, and 120 min, into which 900 μL of methanol was added to stop the reaction immediately, then 100 μL methanol/water (1:1, v/v) and 100 μL internal standard (diazepam, 100 ng/mL) were added sequentially. The mixture was centrifuged at 13000 rpm at low temperature for 10 min, the supernatant was transferred into another EP tube, and 20 μL of the supernatant was taken for sample injection.

esterase [4] = experiment: Esterase hydrolysis rates of TSD-8 and clopidogrel bisulfate, in vitro incubation in rat whole blood; assay type: in vitro ADME; set-up: sample test results (concentration) Num. 1 / sample test results (concentration) Num. 2 / sample test results (concentration) Num. 3 / sample test results (concentration) Mean: unit not given here; conditions: for sample test results (concentration) Mean / sample test results (concentration) Num. 1 / sample test results (concentration) Num. 2 / sample test results (concentration) Num. 3: rat whole blood, 37° C., 30 μg/mL
[5] = ADP induced, rats, blood drawn 2 hours after administration
[6] = SD rat, 1.0 mg/kg oral gavage, 2 h after administration
[7] = SD rat, 1.0 mg/kg oral gavage, 2 h after administration, 15 min circulation

SMILES: [2H]C([2H])([2H])OC(=O)[C@H](c1ccccc1Cl)N1CCc2sc(OP(=O)(Oc3ccccc3)Oc3ccccc3)cc2C1 [TSD-4]
Maximum Platelet Aggregation Rate [1, 5]: 36.2 ± 4.16

SMILES: [2H]C([2H])([2H])OC(=O)[C@H](c1ccccc1Cl)N1CCc2sc(OP(=O)(OC(C)C)OC(C)C)cc2C1 [TSD-3]
Maximum Platelet Aggregation Rate [1, 5]: 28.4 ± 3.27

SMILES: [2H]C([2H])([2H])OC(=O)[C@H](c1ccccc1Cl)N1CCc2sc(OP(=O)(O)O)cc2C1 [TSD-6]
Tail Bleeding Time (s) (Rat Tail Bleeding Model; [6]): 1331* s | anticoagulant effect (tail bleeding time) (Rat Tail Bleeding Model; rat tail bleeding model, 1 mg/kg oral): much better than that of the non-deuterated compound TSC-6 and analog I-1 | Maximum Platelet Aggregation Rate ([1]; rat, in vivo): 17.4 ± 5.13 | Thrombus (mg) [2, 7]: 18.4* mg | weight of the thrombus formed ([2]; rat arteriovenous thrombus loop model, 1 mg/kg oral): much lower than that of the non-deuterated compound TSC-6 and analog I-1 | hydrolysis rate in the rat whole blood (esterase [3]; compared with clopidogrel, FIG. 2): significantly slower than that of clopidogrel | sample test results (concentration) Mean (esterase [3]; 10 min): 389.7 | sample test results (concentration) Num. 1 (esterase [3]; 10 min): 486 | sample test results (concentration) Num. 2 (esterase [3]; 10 min): 287 | sample test results (concentration) Num. 3 (esterase [3]; 10 min): 396 | sample test results (concentration) Mean (esterase [3]; 20 min): 315.3 | sample test results (concentration) Num. 1 (esterase [3]; 20 min): 306 | sample test results (concentration) Num. 2 (esterase [3]; 20 min): 345 | sample test results (concentration) Num. 3 (esterase [3]; 20 min): 295 | sample test results (concentration) Mean (esterase [3]; 30 min): 244.3 | sample test results (concentration) Num. 1 (esterase [3]; 30 min): 246 | sample test results (concentration) Num. 2 (esterase [3]; 30 min): 223 | sample test results (concentration) Num. 3 (esterase [3]; 30 min): 264 | sample test results (concentration) Mean (esterase [3]; 40 min): 217.7 | sample test results (concentration) Num. 1 (esterase [3]; 40 min): 232 | sample test results (concentration) Num. 2 (esterase [3]; 40 min): 213 | sample test results (concentration) Num. 3 (esterase [3]; 40 min): 208 | sample test results (concentration) Mean (esterase [3]; 50 min): 172.0 | sample test results (concentration) Num. 1 (esterase [3]; 50 min): 196 | sample test results (concentration) Num. 2 (esterase [3]; 50 min): 153 | sample test results (concentration) Num. 3 (esterase [3]; 50 min): 167 | sample test results (concentration) Mean (esterase [3]; 60 min): 132.3 | sample test results (concentration) Num. 1 (esterase [3]; 60 min): 115 | sample test results (concentration) Num. 2 (esterase [3]; 60 min): 134 | sample test results (concentration) Num. 3 (esterase [3]; 60 min): 148 | sample test results (concentration) Mean (esterase [3]; 90 min): 97.50 | sample test results (concentration) Num. 1 (esterase [3]; 90 min): 85.3 | sample test results (concentration) Num. 2 (esterase [3]; 90 min): 112 | sample test results (concentration) Num. 3 (esterase [3]; 90 min): 95.2 | sample test results (concentration) Mean (esterase [3]; 100 min): 72.57 | sample test results (concentration) Num. 1 (esterase [3]; 100 min): 84.7 | sample test results (concentration) Num. 2 (esterase [3]; 100 min): 71.8 | sample test results (concentration) Num. 3 (esterase [3]; 100 min): 61.2 | sample test results (concentration) Mean (esterase [3]; 110 min): 54.63 | sample test results (concentration) Num. 1 (esterase [3]; 110 min): 48.1 | sample test results (concentration) Num. 2 (esterase [3]; 110 min): 59.1 | sample test results (concentration) Num. 3 (esterase [3]; 110 min): 56.7 | sample test results (concentration) Mean (esterase [3]; 120 min): 25.83 | sample test results (concentration) Num. 1 (esterase [3]; 120 min): 24.5 | sample test results (concentration) Num. 2 (esterase [3]; 120 min): 28.4 | sample test results (concentration) Num. 3 (esterase [3]; 120 min): 24.6

SMILES: [2H]C([2H])([2H])OC(=O)[C@H](c1ccccc1Cl)N1CCc2sc(OCOP(=O)(OC(C)(C)C)OC(C)(C)C)cc2C1 [TSD-7]
Maximum Platelet Aggregation Rate [1, 5]: 27.1 ± 6.21

SMILES: CC(=O)Oc1cc2c(s1)CCN(C(C(=O)C1CC1)c1ccccc1F)C2 (centres unmarked) [prasugrel, reference compound]
Maximum Platelet Aggregation Rate [1, 5]: 20.72 ± 8.84

hydrolysis rate in the rat whole blood (esterase [4]; compared with clopidogrel, FIG. 1): slower than that of clopidogrel | sample test results (concentration) Mean (esterase [4]; 10 min): 391.50 | sample test results (concentration) Num. 1 (esterase [4]; 10 min): 531 | sample test results (concentration) Num. 2 (esterase [4]; 10 min): 252 | sample test results (concentration) Mean (esterase [4]; 20 min): 290.00 | sample test results (concentration) Num. 1 (esterase [4]; 20 min): 336 | sample test results (concentration) Num. 2 (esterase [4]; 20 min): 242 | sample test results (concentration) Num. 3 (esterase [4]; 20 min): 292 | sample test results (concentration) Mean (esterase [4]; 30 min): 275.33 | sample test results (concentration) Num. 1 (esterase [4]; 30 min): 255 | sample test results (concentration) Num. 2 (esterase [4]; 30 min): 291 | sample test results (concentration) Num. 3 (esterase [4]; 30 min): 280 | sample test results (concentration) Mean (esterase [4]; 40 min): 223.00 | sample test results (concentration) Num. 1 (esterase [4]; 40 min): 222 | sample test results (concentration) Num. 2 (esterase [4]; 40 min): 219 | sample test results (concentration) Num. 3 (esterase [4]; 40 min): 228 | sample test results (concentration) Mean (esterase [4]; 50 min): 101.67 | sample test results (concentration) Num. 1 (esterase [4]; 50 min): 112 | sample test results (concentration) Num. 2 (esterase [4]; 50 min): 103 | sample test results (concentration) Num. 3 (esterase [4]; 50 min): 90 | sample test results (concentration) Mean (esterase [4]; 60 min): 112.00 | sample test results (concentration) Num. 1 (esterase [4]; 60 min): 115 | sample test results (concentration) Num. 2 (esterase [4]; 60 min): 123 | sample test results (concentration) Num. 3 (esterase [4]; 60 min): 98 | sample test results (concentration) Mean (esterase [4]; 90 min): 74.63 | sample test results (concentration) Num. 1 (esterase [4]; 90 min): 76.3 | sample test results (concentration) Num. 2 (esterase [4]; 90 min): 77.4 | sample test results (concentration) Num. 3 (esterase [4]; 90 min): 70.2 | sample test results (concentration) Mean (esterase [4]; 100 min): 55.40 | sample test results (concentration) Num. 1 (esterase [4]; 100 min): 52.7 | sample test results (concentration) Num. 2 (esterase [4]; 100 min): 63.2 | sample test results (concentration) Num. 3 (esterase [4]; 100 min): 50.3 | sample test results (concentration) Mean (esterase [4]; 110 min): 47.90 | sample test results (concentration) Num. 1 (esterase [4]; 110 min): 45.7 | sample test results (concentration) Num. 2 (esterase [4]; 110 min): 51.5 | sample test results (concentration) Num. 3 (esterase [4]; 110 min): 46.5 | sample test results (concentration) Mean (esterase [4]; 120 min): 34.90 | sample test results (concentration) Num. 1 (esterase [4]; 120 min): 34.3 | sample test results (concentration) Num. 2 (esterase [4]; 120 min): 38.7 | sample test results (concentration) Num. 3 (esterase [4]; 120 min): 31.7
SMILES: [2H]C([2H])([2H])OC(=O)[C@H](c1ccccc1Cl)N1CCc2sc(OCOP(=O)(O)O)cc2C1 [TSD-8]
Maximum Platelet Aggregation Rate [1, 5]: 16.3 ± 4.16

SMILES: COC(=O)[C@H](c1ccccc1Cl)N1CCc2sc(OP(=O)(O)O)cc2C1 [TSC-6]
Tail Bleeding Time (Rat Tail Bleeding Model; [6]): 635 s | Maximum Platelet Aggregation Rate ([1]; rat, in vivo): 29.6 ± 5.33 | Thrombus (mg) [2, 7]: 31.4* mg

SMILES: [2H]C([2H])([2H])OC(=O)[C@H](c1ccccc1Cl)N1CCc2sc(OP(=O)(OCC)OCC)cc2C1 [TSD-2]
Maximum Platelet Aggregation Rate [1, 5]: 32.7 ± 5.33

SMILES: [2H]C([2H])([2H])OC(=O)[C@H](c1ccccc1Cl)N1CCc2sc(OP(=O)(OC)OC)cc2C1 [TSD-1]
Maximum Platelet Aggregation Rate [1, 5]: 35.6 ± 3.35

SMILES: [2H]C([2H])([2H])OC(=O)[C@H](c1ccccc1Cl)N1CCc2sc(OC(C)=O)cc2C1 [I-1]
Tail Bleeding Time (Rat Tail Bleeding Model; [6]): 950 s | Thrombus [2, 7]: 25.6 mg
